Measurements reported in ChEMBL document CHEMBL1201862, “PubChem BioAssay data set” (2004).
“And” between values parts separate entries of the source, which are not always exact repeats. Equal values may be shown once.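 Following 48 hours of exposure in 96-well plates, responses at five concentrations were used to interpolate endpoints linearly. The concentration for 50% growth inhibition is given as GI50.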 The source made the active and inactive calls. Cut-off read from the data, not from the text of the source: active = GI50 up to about 1.1 µM and inactive = higher.

What was measured:
Assay in all cases: inhibition of tumour cell growth, NCI panel, 48 h
[1] = test system: SNB-19
[2] = test system: RXF 393
[3] = test system: CAKI-1
[4] = test system: T47D
[5] = test system: PC-3
[6] = test system: DU-145
[7] = test system: EKVX
[8] = test system: HCT-15
[9] = test system: M19-MEL
[10] = test system: NCI-H226
[11] = test system: HT-29
[12] = test system: SF-268
[13] = test system: SK-MEL-2
[14] = test system: CCRF-CEM
[15] = test system: LOX IMVI
[16] = test system: OVCAR-8
[17] = test system: U-251
[18] = test system: IGROV-1
[19] = test system: RPMI-8226
[20] = test system: UACC-257

Row | Structure (SMILES) | GI50 [1] | GI50 [2] | GI50 [3] | GI50 [4] | GI50 [5] | GI50 [6] | GI50 [7] | GI50 [8] [µM] | GI50 [9] | GI50 [10] | GI50 [11] | GI50 [12] | GI50 [13] | GI50 [14] | GI50 [15] | GI50 [16] | GI50 [17] | GI50 [18] | GI50 [19] | GI50 [20]
1 | O=[N+]([O-])c1ccc2c(Nc3ccccc3-c3ccccc3Nc3c4ccccc4nc4cc([N+](=O)[O-])ccc34)c3ccccc3nc2c1 | 4.32 µM (inactive) | 1.52 µM (inactive) | 6.46 µM (inactive) | 7.24 µM (inactive) | 1.44 µM (inactive) | 6.89 µM (inactive) | 11.8 µM (inactive) | 3.77 | 6.56 µM (inactive) | 4.11 µM (inactive) | 4.14 µM (inactive) | 6.55 µM (inactive) | 2.03 µM (inactive) | 3.88 µM (inactive) | 9.57 µM (inactive) | 3.93 µM (inactive) | 2.94 µM (inactive) | 10.8 µM (inactive) | 1.69 µM (inactive) | 8.05 µM (inactive)
2 | NC(CCc1nc(-c2ccc(Cl)cc2)cs1)C(=O)O (stereo not drawn) | > 100 µM (inactive) | > 100 µM (inactive) | > 100 µM (inactive) |  |  |  | > 100 µM (inactive) | 74 | > 100 µM (inactive) | > 100 µM (inactive) | > 100 µM (inactive) | > 100 µM (inactive) | > 100 µM (inactive) | > 100 µM (inactive) | > 100 µM (inactive) | > 100 µM (inactive) | > 100 µM (inactive) | > 100 µM (inactive) | > 100 µM (inactive) | > 100 µM (inactive)
3 | CC1CCC2(C(=O)O)CCC3(C)C(=CCC4C5(C)CCC(O)C(C)(C)C5CCC43C)C2C1C (stereo not drawn) | 10.3 µM (inactive) | 6.12 µM (inactive) and 11.4 µM (inactive) | 6 µM (inactive) and 3.7 µM (inactive) | 14.2 µM (inactive) | 15.8 µM (inactive) | 9.16 µM (inactive) | 10.6 µM (inactive) and 13.8 µM (inactive) |  | 8.17 µM (inactive) | 19.7 µM (inactive) and 11.1 µM (inactive) | 20.7 µM (inactive) and 11 µM (inactive) |  | 11.2 µM (inactive) and 15.9 µM (inactive) |  | 4.13 µM (inactive) and 6.59 µM (inactive) | 13.8 µM (inactive) and 8.3 µM (inactive) | 9.68 µM (inactive) and 17.8 µM (inactive) | 13.4 µM (inactive) and 18.2 µM (inactive) | 10.6 µM (inactive) and 7.1 µM (inactive) | 
4 | CC(Oc1ccc(Oc2cnc3ccc(Cl)cc3n2)cc1)C(=O)O (stereo not drawn) | > 62.1 µM (inactive) | > 81.8 µM (inactive) | 64.1 µM (inactive) | 84.1 µM (inactive) | > 100 µM (inactive) |  | > 99.8 µM (inactive) | > 74.1 | > 100 µM (inactive) |  | > 95.3 µM (inactive) | > 100 µM (inactive) | > 88.5 µM (inactive) |  | 51.6 µM (inactive) | > 80.5 µM (inactive) | > 63.7 µM (inactive) | > 64.1 µM (inactive) | > 73.6 µM (inactive) | > 86.3 µM (inactive)
5 | CC(=O)CCn1[nH]c(=O)c(Cl)c(Cl)c1=O | 15.3 µM (inactive) | > 100 µM (inactive) | 14.3 µM (inactive) |  |  |  | > 100 µM (inactive) | > 100 | > 100 µM (inactive) | > 100 µM (inactive) | > 100 µM (inactive) | > 100 µM (inactive) | > 100 µM (inactive) | > 100 µM (inactive) | > 100 µM (inactive) | > 100 µM (inactive) |  | > 100 µM (inactive) | > 100 µM (inactive) | > 100 µM (inactive)
6 | CCOC(=O)C1=C(Nc2ccc(NC3=C(C(=O)OCC)C(=O)CS3)cc2)SCC1=O | 32.2 µM (inactive) | 16 µM (inactive) | 14.8 µM (inactive) |  |  |  | 35.2 µM (inactive) | 18.5 | 21.7 µM (inactive) | 19.8 µM (inactive) | 19.3 µM (inactive) | 22 µM (inactive) | 16.5 µM (inactive) | 29.8 µM (inactive) | 14.2 µM (inactive) | 27 µM (inactive) | 25.2 µM (inactive) | 24.3 µM (inactive) | 18.5 µM (inactive) | 22.7 µM (inactive)
